The values below come from patent US4882316A, “Pyrimidine derivatives” (Hoffmann-La Roche Inc., priority 1986, dated 1989).

Each structure is given as a SMILES string.

The experiment has as its target herpes simplex virus type 2 (HSV-2) thymidine kinase (Human herpesvirus 2, UniProt P89446). Briefly: inhibition of herpes simplex virus type 2 (HSV-2) thymidine kinase in vitro (3H-thymidine phosphorylation). The settings on record: thymidine kinase extract; 50 mM Tris-HCl, pH 8; 5 mM MgCl2; 5 mM ATP; 0.3 μM 3H-thymidine; 37° C., 30 minutes; read-out: IC50 (concentration of the test compound which inhibits enzyme activity by 50%). In kind it is biochemical. As to the method: The assay mixture contains 50 mM Tris-HCl, pH 8, 5 mM magnesium chloride, 5 mM ATP, 0.3 μM ^3 H-thymidine (50 Ci/mmol), suitably diluted thymidine kinase extract and various concentrations of the test compounds in a total volume of 100 μl. Assays are incubated at 37° C. for 30 minutes and the reaction is terminated by immersion in a boiling water bath for 2 minutes. 85 μl aliquots from each assay are then dried on cellulose paper discs and the unphosphorylated ^3 H-thymidine is removed by washing in 4 mM ammonium formate. The radioactivity remaining bound to the discs is then measured by scintillation spectrophotometry. The degree of inhibition at each concentration of the test compound is expressed as a percentage of a control reaction. The IC50 value, namely the concentration of the test compound which inhibits enzyme activity by 50%, is then calculated. The results obtained with representative compounds of formula I are compiled in the following Table: […]

herpes simplex virus type 2 (HSV-2) thymidine kinase, sequence (P89446 whole entry): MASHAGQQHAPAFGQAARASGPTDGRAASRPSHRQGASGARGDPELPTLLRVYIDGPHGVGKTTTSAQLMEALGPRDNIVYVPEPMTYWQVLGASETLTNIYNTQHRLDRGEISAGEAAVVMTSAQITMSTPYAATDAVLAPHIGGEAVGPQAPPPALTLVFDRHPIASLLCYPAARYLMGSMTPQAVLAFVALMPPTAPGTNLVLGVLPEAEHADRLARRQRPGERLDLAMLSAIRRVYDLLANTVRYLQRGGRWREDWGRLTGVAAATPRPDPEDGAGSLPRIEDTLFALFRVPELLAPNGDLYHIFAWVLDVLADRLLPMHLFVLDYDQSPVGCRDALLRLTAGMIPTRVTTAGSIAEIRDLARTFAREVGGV

With `CCc1cn([C@H]2C[C@H](O)[C@@H](CCC(O)Cc3c(Cl)cccc3Cl)O2)c(=O)[nH]c1=O` (mixture of isomers) [Example 5, 5'-[3-(2,6-dichlorophenyl)-2(RS)-hydroxypropyl]-2',5'-dideoxy-5-ethyluridine], the IC50 is 16 nM.

`CCc1cn([C@H]2C[C@H](O)[C@@H](CCC(=O)Cc3c(Cl)cccc3Cl)O2)c(=O)[nH]c1=O` [Example 3, 5'-[3-(2,6-dichlorophenyl)-2-oxopropyl]-2',5'-dideoxy-5-ethyluridine]: the IC50 was 2.4 nM.

On to `CCc1cn([C@H]2C[C@H](O)[C@@H](CCCCc3ccccc3)O2)c(=O)[nH]c1=O` [Example 7, 2',5'-dideoxy-5-ethyl-5'-(3-phenylpropyl)uridine], for which the IC50 worked out at 170 nM.

Consider `CCc1cn([C@H]2C[C@H](O)[C@@H](CS(=O)(=O)Cc3ccccc3)O2)c(=O)[nH]c1=O` [Example 9, 5'-benzylsulphonyl-2',5'-dideoxy-5-ethyluridine], for which the IC50 was 600 nM.

`CCc1cn([C@H]2C[C@H](O)[C@@H](CSCc3c(Cl)cccc3Cl)O2)c(=O)[nH]c1=O` [Example 14c, 5'-(2,6-dichlorobenzylthio)-2',5'-dideoxy-5-ethyluridine]: the IC50 is 72 nM.
